Results from article PMC6934975, “Natural Alpha-Glucosidase Inhibitors Rapid Fishing from Cyperus Rotundus Using Immobilized Enzyme Affinity Screening Combined with UHPLC-QTOF MS” (Iranian Journal of Pharmaceutical Research : IJPR, 2019).
Where two headings read alike, the source gives them in different places.

What was measured:
[1] = biological target: T1, α-Glucosidase (E.C. 3.2.1.20) from Saccharomyces cerevisiae (Saccharomyces cerevisiae, UniProt P53341); assay: Kinetic analysis of AGH inhibition (Lineweaver-Burk plot); assay type: biochemical
T1 construct: purchased Sigma-Aldrich
Method: (§1) where AS, ASB, AC and ACB are the absorbance of sample, sample blank, control and control blank, respectively. The measurement was performed in triplicates. For kinetic analysis of AGH inhibition, a certain concentration of 0.6 U/mL AGH and different contents of sample compounds were incubated with a series of concentrations of substrate. The inhibitory kinetics of the investigated compounds was analyzed using the Lineweaver-Burk plot, double-reciprocal plot of the substrate concentration and velocity.

[2] = biological target: T2, immobilized α-glucosidase (Saccharomyces cerevisiae, UniProt P53341); assay: AGH inhibitors screening by immobilized AGH affinity fishing with UHPLC-QTOF-MS; assay type: binding; settings: C. rotundus extract; parallel control with blank sepharose supports
T2 construct: purchased Sigma-Aldrich
Method: a-Glucosidase (0.20 mg) was dissolved in coupling buffer (0.1 M NaHCO3 and 0.5 M NaCl at pH 8.3) at a concentration of 2.0 mg protein/mL. The protein solution was mixed with CNBr-activated Sepharose^TM 4B gel at room temperature in a ratio of […] protein solution to 5 mg Sepharose^TM powder, which would swell to about […] of wet gel. The gel slurry was rotated at room temperature for 1 h to ensure the enzyme bound to the beads. After protein coupling, the resident reactive sites on the gel were blocked by reacting with 0.01 M Tris-HCl buffer at pH 8.0 for 1 h at room temperature. […] Control supports were prepared in the same manner but with no AGH being added during the immobilization step.
200 mg ground C. rotundus powder was extracted in 20 mL of 80% aqueous methanol by ultrasonic extraction for 30 min. The extract was filtered and freeze-dried, then redissolved in 10 mL affinity buffer (67 mM KH2PO4 (containing 5% methanol) at pH 6.8) and filtered through a 0.45 μm membrane as the tested extract sample.
C. rotundus extracts (400 mL) was mixed with […] immobilized AGH gel and gently stirred at 37 °C for 20 min. After incubation with the extracts, the gel were washed with 400 mL affinity buffer (67 mM KH2PO4 (containing 5% methanol) at pH 6.8) four times to remove any unbound components and then treated with […] desorbed solution (50% methanol aqueous solution at pH 3.3) to release the captured potential inhibitors of AGH. The released components were collected and concentrated to 10 mL under N2 atmosphere at 40 °C, then applied to UPLC-QTOF-MS for peak identification. Elution from the control supports was collected and analyzed in the same manner.
UHPLC-MS was performed on an Agilent 1290 Infinity LC-6520 Accurate-Mass QTOF-MS (Agilent Corporation, CA, USA). Analytes eluted from the AGH coupling supports and control supports were separated on a poroshell 120 EC-C18 column (3.0 × 50 mm, 2.7 µm , Agilent Corporation, MA, USA). The solvent system consisted of solvent A […] and solvent B (0.5% formic acid in water, v/v). The solvent A content of the mobile phase was gradient increased from 5% to 100% linearly in 20 min.
The flow rate was set at 0.4 mL/min. Mass analysis was performed in negative ESI ion mode. The operating parameters were as follows: drying gas (N2) flow rate, 8 L/min; drying gas temperature, 325 °C; nebulizer, 30 psig; capillary, 3500 V; skimmer, 65 V; fragmentor voltage, 100 V. The mass range was set at m/z 100–2000. The system was operated under Agilent MassHunter workstation acquisition software, version B.02.01 (Agilent Corporation, MA, USA).
The extract of C. rotundus was used as the real biological sample to carry out the affinity screening procedure, just as shown in Scheme 1. Firstly, α-glucosidase was immobilized on CNBr-activated sepharose beads, while blank supports were set as control. Secondly, immobilized α-glucosidase was incubated with 300 µL of C.
rotundus extracts to launch the affinity capture procedure. The highly-affinity components in C. rotundus could be specifically captured by the enzyme and fished out from the complex matrix. Thirdly, to characterize the captured compounds, the binders were released from immobilized α-glucosidase and subsequently separated and analyzed by UHPLC-QTOF MS. It was worth mentioning that not all the molecules retained on immobilized enzyme were of highly-affinity. Some of them might be non-specifically absorbed on the blank sepharose support. To eliminate this false positive, a parallel control was carried out throughout the whole screening procedure. By subtracting the signal of false positive, the highly-affinity ingredients could be recognized correctly, and these ingredients might be potent natural AGHI in C. rotundus.

[3] = biological target: T1, α-Glucosidase (E.C. 3.2.1.20) from Saccharomyces cerevisiae; assay: α-Glucosidase inhibitory activity assay in vitro (PNPG substrate, absorbance at 405 nm); assay type: biochemical
Description: Agilent 1290 Infinity LC-6520 Accurate-Mass QTOF-MS (Agilent Technologies, PaloAlto, CA, USA); Bruker DRX-400 (400MHz for ^1H and 100MHz for ^13C) spectrometer (Bruker, Rheinstetten, Germany); α-Glucosidase (E.C. 3.2.1.20) from Saccharomyces cerevisiae, p-nitrophenyl a-D-glucopyranoside (PNPG) and glutathione (GSH) were purchased from Sigma-Aldrich (St Louis, MO, USA). CNBr-activated Sepharose^TM 4B was purchased from Phamacia Biotech AB (Uppsala, Sweden). Distilled water was purified by a Milli-Q water purification apparatus (Millipore, Bedford, MA). All other reagents were of analytical grade.
Each of the dried ground powder (3 g) was extracted in 30 mL of 80% aqueous methanol by ultrasonic extraction for 60 min at room temperature. After centrifugation at 5000 rpm for 5 min, the combined extract was evaporated under reduced pressure to dryness. To each herb extract, DMSO was added to get 5 mg/mL solution, respectively.
The α-glucosidase inhibitory activity was determined spectrophotometrically on 96-well microplate reader. In brief, to a total of 310 μL of reaction mixture containing 265 μL of 67 mM phosphate buffer (pH 6.8), 10 μL of 3 mM glutathione, 25 μL of 10 mM p-nitrophenyl-α-D-glucopyranoside and 10 μL of investigated compounds in the wells was added 10 μL of 0.3 U/mL α-glucosidase and mixed. All the reagents used in this assay were dissolved in the same phosphate buffer (67 mM, pH 6.8). After incubation for 10 min at 37 °C, the reaction was stopped by adding […] of 0.1 M Na2CO3 solution. Then the absorbance of sample (AS) at 405 nm was recorded (SunriseTM microplate absorbance reader, Tecan, Austria). The control was the same mixture except for the investigated sample replaced by the phosphate buffer. The sample blank and control blank were the same mixtures as sample and control, respectively, except α-glucosidase was instead with phosphate buffer, respectively.
The α-glucosidase inhibition activity (%) of test sample could be calculated as
Inhibition activity (%) = […]
as §1

[4] = system: α-glucosidase; parameters: method as in PMID 24044731; settings: cited from earlier work

T2 sequence (P53341 whole entry): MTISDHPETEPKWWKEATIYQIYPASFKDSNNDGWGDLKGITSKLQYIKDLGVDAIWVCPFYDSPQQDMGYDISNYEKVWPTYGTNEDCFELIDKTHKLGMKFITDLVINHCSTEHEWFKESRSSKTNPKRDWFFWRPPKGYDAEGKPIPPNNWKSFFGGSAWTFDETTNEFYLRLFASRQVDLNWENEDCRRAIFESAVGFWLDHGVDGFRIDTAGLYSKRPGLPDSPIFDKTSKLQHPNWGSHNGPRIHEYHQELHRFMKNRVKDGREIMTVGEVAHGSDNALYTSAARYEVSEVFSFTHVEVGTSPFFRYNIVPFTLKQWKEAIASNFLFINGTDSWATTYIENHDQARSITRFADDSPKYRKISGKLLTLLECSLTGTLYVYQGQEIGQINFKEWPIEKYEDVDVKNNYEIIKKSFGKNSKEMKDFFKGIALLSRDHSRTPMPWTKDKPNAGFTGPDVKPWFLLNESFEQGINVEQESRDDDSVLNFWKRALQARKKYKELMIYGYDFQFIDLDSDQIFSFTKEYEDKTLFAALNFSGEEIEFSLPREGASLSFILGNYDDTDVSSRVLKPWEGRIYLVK
T1 sequence (P53341 whole entry): as above

For `C[C@H]1O[C@H](O[C@H]2[C@H](O)[C@@H](O)[C@@H](O[C@H]3[C@H](O)[C@@H](O)C(O)O[C@@H]3CO)O[C@@H]2CO)[C@H](O)[C@@H](O)[C@@H]1N[C@H]1C=C(CO)[C@@H](O)[C@H](O)[C@H]1O` (stereo partly drawn) [Acarbose (reference), Acarbose, reference compound], the “alpha-glucosidase inhibitory kinetic mode” value ([1]; Lineweaver-Burk plots) was “competitive”.

In the case of `Oc1ccc(/C=C/c2c3c(cc4c2[C@H](c2cc(O)cc(O)c2)[C@@H](c2ccc(O)c(O)c2)O4)O[C@H](c2ccc(O)c(O)c2)[C@H]3c2cc(O)cc(O)c2)cc1` [Cyperusphenol A (1), (E)-cyperusphenol A], the “Affinity capture result on immobilized α-glucosidase after subtracting the blank support signal” value (shortened to “Affinity capture result”) [2] is reported as “highly-affinity binders”, the Ki [1] is reported as 11.2 µM and the “alpha-glucosidase inhibitory kinetic mode” value ([1]; Lineweaver-Burk plots) is reported as “Noncompetitive”. For the same compound, the IC50 [3] was 1.43 ± 0.11 µM and the “α-glucosidase inhibitory activity in words” value [3] was “potent natural AGHIs”.

In the case of `Oc1cc2c3c(c1)C1c4c(cc(O)cc4C4c5c(cc(O)cc5C3C(c3ccc(O)c(O)c3)O2)OC4c2ccc(O)c(O)c2)OC1c1ccc(O)c(O)c1` (stereo not drawn) [Cyperusphenol D (3), Cyperusphenol D], the “Affinity capture result” value [2] is reported as “highly-affinity binders”, the Ki [1] is reported as 8.63 µM and the “alpha-glucosidase inhibitory kinetic mode” value ([1]; Lineweaver-Burk plots) is reported as “Noncompetitive”. For the same compound, the IC50 [3] was 1.18 ± 0.11 µM and the “α-glucosidase inhibitory activity in words” value [3] was “potent natural AGHIs”.

For `Oc1ccc(/C=C/c2c3c(cc4c2[C@@H](c2cc(O)cc(O)c2)[C@H](c2ccc(O)c(O)c2)O4)O[C@H](c2ccc(O)c(O)c2)[C@H]3c2cc(O)cc(O)c2)cc1` [Mesocyperusphenol A (2), mesocyperusphenol A], the “Affinity capture result” value [2] was “highly-affinity binders”, the Ki [1] was 10.7 µM and the “alpha-glucosidase inhibitory kinetic mode” value ([1]; Lineweaver-Burk plots) was “Noncompetitive”. For the same compound, the IC50 [3] was 1.44 ± 0.17 µM and the “α-glucosidase inhibitory activity in words” value [3] was “potent natural AGHIs”.

For `Oc1ccc(/C=C/c2cc(O)cc3c2C(c2cc(O)cc(O)c2)C(c2ccc(O)c(O)c2)O3)cc1` (stereo not drawn) [Scirpusins A (5), Scirpusins A], the “Affinity capture result” value [2] is given as “highly-affinity binders”, the “α-glucosidase inhibitors in C. rotundus (reported)” value [4] is given as “natural α-glucosidase inhibitors” and the “alpha-glucosidase inhibitory kinetic mode” value ([1]; Lineweaver-Burk plots) is given as “Noncompetitive”. The Ki ([1]; Lineweaver-Burk plots, Table 2, read-out: alpha-glucosidase inhibitory Ki) was 136 µM and the IC50 ([3]; Table 2, read-out: alpha-glucosidase inhibitory IC50) was 21.4 ± 1.4 µM.

In the case of `Oc1cc(O)cc(C2c3c(/C=C/c4ccc(O)c(O)c4)cc(O)cc3OC2c2ccc(O)c(O)c2)c1` (stereo not drawn) [Scirpusins B (4), Scirpusins B], the “Affinity capture result” value [2] is listed as “highly-affinity binders”, the “α-glucosidase inhibitors in C. rotundus (reported)” value [4] is listed as “natural α-glucosidase inhibitors” and the Ki [1] is listed as 95.4 µM. The “alpha-glucosidase inhibitory kinetic mode” value ([1]; Lineweaver-Burk plots) was “Noncompetitive” and the IC50 [3] was 13.3 ± 1.66 µM.

In the case of `CC1=C2C(O)C3CC(O)C(C)C2(CC1O)C3(C)C` (stereo not drawn) [sugetriol], the “Affinity capture result” value [2] is reported as “absorbed only on the support matrix”.
